The values that follow are results of earlier work, collected in US7968545B2 (priority 2003, dated 2011).

For series [1] the following is noted: human, in vivo.
For series [2] the following is noted: in vivo.
For series [3] the following is noted: in vivo. This is another data set of the same source.

With `NCC1(CC(=O)O)CCCCC1` [Gabapentin], the “share of patients in whom it works” value in series [1] is 60%.

Take `CSCC[C@@H]1NC(=O)[C@H](CC(C)C)NC(=O)[C@H](CCCNC(=N)N)NC(=O)[C@H](CO)NC(=O)[C@@H]2CSSC[C@@H]3NC(=O)[C@H](CO)NC(=O)CNC(=O)[C@H]([C@@H](C)O)NC(=O)[C@H](CSSC[C@H](N)C(=O)N[C@@H](CCCCN)C(=O)NCC(=O)N[C@@H](CCCCN)C(=O)NCC(=O)N[C@@H](C)C(=O)N[C@@H](CCCCN)C(=O)N2)NC(=O)[C@H](CSSC[C@@H](C(N)=O)NC(=O)[C@H](CCCCN)NC(=O)CNC(=O)[C@H](CO)NC(=O)[C@H](CCCNC(=N)N)NC3=O)NC(=O)[C@H](CC(=O)O)NC(=O)[C@H](Cc2ccc(O)cc2)NC1=O` [Ziconotide, ω-conotoxin-MVIIA]: in series [2], the “reduction of infarct size” value is “effective in reducing infarct size”. In addition, the “success rate for the treatment of pain” value in series [3] is 85%.
